Test results published in paper PMC9598282 (Antibiotics, 2022).
In brackets after ≈: the same amount, converted by molar mass. Where two headings read alike, the source gives them in different places. Bridge positions count the residues as written; N and C are the ends. Square brackets hold non-standard residues; d marks the D form. Peptide text beside a SMILES is read from it. Dab = NCC[C@H](N)C(=O)O

Experiments:
P. aeruginosa PA 86052 [1] = assay type: cell-based, Pseudomonas aeruginosa; conditions: PA 86052, 18 h
Procedure: (§1) The adjuvant properties of the guanidinylated polymyxins were evaluated using the checkerboard assay as previously described. The bacterial solution was prepared as described in the antimicrobial susceptibility assay. The antibiotic of interest and the adjuvant were serially diluted two-fold along the x- and y-axis on a 96-well plate, respectively, resulting in varying concentrations of both agents in each well. Equal volumes of bacterial solution were added to the designated wells. The well consisting of bacterial solution served as the positive control, while the wells containing only media served as the negative control. The plate was then incubated at 37 °C for 18 h. After incubation, an Emax Plus microplate reader (Molecular Devices, Union City, CA, USA) was used to measure the OD at a wavelength of 590 nm to confirm the turbidity. The fractional inhibitory concentration (FIC) index was then determined to establish the relationship between the antibiotic and adjuvant. The FIC index corresponds to the sum of the FICs of the antibiotic and adjuvant. The FIC of each agent is calculated by dividing its MIC when it is used in combination by its MIC when used alone. FIC indices ≤0.5, 0.5 < x ≤ 4 and >4 indicate synergy, additivity and antagonism, respectively.

P. aeruginosa PA 88949 [2] = assay type: cell-based, Pseudomonas aeruginosa
Procedure: as §1

P. aeruginosa PA 107092 [3] = assay type: cell-based, Pseudomonas aeruginosa
Procedure: as §1

P. aeruginosa PA 109084 [4] = assay type: cell-based, Pseudomonas aeruginosa
Procedure: as §1

E. coli 107115 = experiment: microbe, parasite or virus in culture; assay type: cell-based, Escherichia coli
Procedure: as §1

P. aeruginosa PA 86052 [5] = experiment: MIC, broth microdilution; assay type: cell-based, Pseudomonas aeruginosa; conditions: β-lactamase harboring isolate
Procedure, shortened: (§2)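 MIC is the lowest agent concentration preventing visible bacterial growth, with turbidity checked by OD at 590 nm. Agents were two-fold diluted in Mueller–Hinton broth and inoculated at 5 × 10^5 CFU/mL before 18 h incubation at 37 °C.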

P. aeruginosa PA 88949 [6] = experiment: MIC, broth microdilution; assay type: cell-based, Pseudomonas aeruginosa; conditions: β-lactamase harboring isolate
Procedure, shortened: as §2

P. aeruginosa PA 107092 [7] = experiment: MIC, broth microdilution; assay type: cell-based, Pseudomonas aeruginosa; conditions: β-lactamase harboring isolate
Procedure, shortened: as §2

P. aeruginosa PA 109084 [8] = experiment: MIC, broth microdilution; assay type: cell-based, Pseudomonas aeruginosa; conditions: β-lactamase harboring isolate
Procedure, shortened: as §2

E. cloacae 118564 = experiment: Checkerboard assay; assay type: cell-based, Enterobacter cloacae
Procedure: as §1

[9] = adjuvant at 0.5 μg/mL as printed
[10] = with 8 μM avibactam, adjuvant at 2 (PMBN, GCol), 1 (GPMB) μg/mL
[11] = agent alone, one value per checkerboard plate

SMILES: CC(C)C[C@@H]1NC(=O)[C@@H](Cc2ccccc2)NC(=O)[C@H](CCN)NC(=O)[C@@H](NC(=O)[C@H](CCN)NC(=O)[C@@H](N)[C@@H](C)O)CCNC(=O)[C@H]([C@@H](C)O)NC(=O)[C@H](CCN)NC(=O)[C@H](CCN)NC1=O [PMBN, polymyxin B nonapeptide] (H-T[Dab][Dab][Dab][dF]L[Dab][Dab]T; lactam 3-C (inferred); N-terminus assumed)
- MIC adjuvant alone (P. aeruginosa PA 86052 [1]): 16 µM
- MIC adjuvant alone (P. aeruginosa PA 88949 [2]; PA 88949, 18 h): 16 µM
- Fold potentiation of aztreonam (P. aeruginosa PA 88949 [2]; [9]): 1
- Fold potentiation of ceftazidime (P. aeruginosa PA 88949 [2]; [9]): 1
- MIC adjuvant alone (P. aeruginosa PA 107092 [3]; PA 107092, 18 h): 56 µM
- Fold potentiation of aztreonam (P. aeruginosa PA 107092 [3]; adjuvant at 2 μg/mL as printed): 4
- Fold potentiation of ceftazidime (P. aeruginosa PA 107092 [3]; adjuvant at 2 (PMBN, GCol), 1 (GPMB) μg/mL): 8
- Fold potentiation of aztreonam (P. aeruginosa PA 107092 [3]; [10]): 4
- Fold potentiation of ceftazidime (P. aeruginosa PA 107092 [3]; [10]): 8
- MIC adjuvant alone (P. aeruginosa PA 109084 [4]; PA 109084, 18 h): 56 µM
- Fold potentiation of ceftazidime (P. aeruginosa PA 109084 [4]; adjuvant at 1 μg/mL as printed): 16
- Fold potentiation of aztreonam (P. aeruginosa PA 109084 [4]; adjuvant at 1 (PMBN, GCol), 0.5 (GPMB) μg/mL as printed): 16
- Fold potentiation of ceftazidime (P. aeruginosa PA 109084 [4]; with 8 μM avibactam, adjuvant at 2 μg/mL as printed): 4
- Fold potentiation of aztreonam (P. aeruginosa PA 109084 [4]; with 8 μM avibactam, adjuvant at 2 (PMBN), 0.5 (GCol, GPMB) μg/mL as printed): 16
- MIC alone (E. coli 107115; 107115, 18 h): < 256 µg/mL
- MIC alone (E. coli 107115; [11]): > 256 µg/mL
- Fold-potentiation of erythromycin (E. coli 107115; with 1 μg/mL adjuvant): 32
- Fold-potentiation of rifampicin (E. coli 107115; with 1 μg/mL adjuvant): 512
- Fold-potentiation of ceftazidime (E. coli 107115; with 2 μg/mL adjuvant): 32
- MIC (P. aeruginosa PA 86052 [5]): 16 µg/mL (≈ 16.6 µM)
- MIC (P. aeruginosa PA 88949 [6]): 16 µg/mL (≈ 16.6 µM)
- MIC (P. aeruginosa PA 107092 [7]): 64 µg/mL (≈ 66.4 µM)
- MIC (P. aeruginosa PA 109084 [8]): 32 µg/mL (≈ 33.2 µM)
- MIC alone (E. cloacae 118564; [11]): > 256 µg/mL
- Fold-potentiation of erythromycin (E. cloacae 118564; with 8 μg/mL adjuvant): 4
- Fold-potentiation of rifampicin (E. cloacae 118564; with 8 μg/mL adjuvant): 8
